Patent US12617762B2, “Carboxy derivatives with antiinflamatory properties” (Sitryx Therapeutics Limited, priority 2019, dated 2026)
Read-outs that look alike come from different tables or passages of the source.

Legend:
[1] = tested on: IL-1β cytokine output from THP-1s; assay: THP-1 AlphaLISA IL-1β cytokine inhibition assay; format: cell-based; details: for IC50: Homo sapiens; for IL-1β lowering, result in words: THP-1 IL-1β assay
Procedure, shortened: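 IL-1β release by AlphaLISA, expressed as % inhibition against +/− LPS controls on each plate. Differentiation: PMA, 72 h. Sequence: 30 min compound pre-treatment, LPS 24 h, Nigericin 1 h before supernatant harvest, all at 37° C./5% CO2.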

[2] = tested on: IL-6 cytokine output from THP-1s; assay: THP-1 AlphaLISA IL-6 cytokine inhibition assay; format: cell-based; details: Homo sapiens, LPS then nigericin
Description: The cytokine inhibition profiles of compounds of formula (I) were determined in a differentiated THP-1 cell assay. All assays were performed in RPMI-1640 growth medium (Gibco), supplemented with 10% fetal bovine serum (FBS; Gibco), 1% penicillin-streptomycin and 1% sodium pyruvate unless specified otherwise. The IL-1β cytokine inhibition assay was run in a background of differentiated THP-1 cells as described below. All reagents described were from Sigma-Aldrich unless specified otherwise. Compounds were prepared as 10 mM DMSO stocks.
THP-1 cells were expanded as a suspension up to 80% confluence in appropriate growth medium. Cells were harvested, suspended, and treated with an appropriate concentration of phorbol 12-myristate 13-acetate (PMA) over a 72 hr period (37° C./5% CO2).
Following 72 hrs of THP-1 cell incubation, cellular medium was removed and replaced with fresh growth media containing 1% of FBS. Working concentrations of compounds were prepared separately in 10% FBS treated growth medium and pre-incubated with the cells for 30 minutes (37° C./5% CO2). Following the 30 minute compound pre-incubation, THP-1s were treated with an appropriate concentration of LPS and the cells were subsequently incubated for a 24 hr period (37° C./5% CO2). An appropriate final concentration of Nigericin was then dispensed into the THP-1 plates and incubated for 1 hour (37° C./5% CO2) before THP-1 supernatants were harvested and collected in separate polypropylene 96-well holding plates.
Reagents from an IL-1β and IL-6 commercial kit (Perkin Elmer) were prepared and run according to the manufacturer's instructions. Subsequently, fluorescence signal detection in a microplate reader was measured (EnVision® Multilabel Reader, Perkin Elmer).
Percentage inhibition was calculated per cytokine by normalising the sample data to the high and low controls used within each plate (+/− LPS respectively).

[3] = tested on: NRF2 (nuclear factor erythroid 2-related factor 2); assay: NRF2 +/-GSH activation assay (DiscoverX PathHunter NRF2 translocation kit, U2OS cells); format: cell-based
Procedure, shortened: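 Activation is expressed as percent of plate DMF (high) versus no-DMF (low) controls, from luminescence after 6 h compound exposure at 37 °C of U2OS PathHunter cells. The +GSH condition used compound pre-incubated 30 min in 6 mM working GSH; −GSH cells received compound directly.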

[4] = Hepatocyte stability assay, mouse; format: in vitro ADME; details: mouse, hepatocytes; for hepatocyte CLint at 10 μM: Hepatocyte stability Clint; for half-life at 10 μM: Hepatocyte stability T½
Procedure, shortened: (§1)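 Thawed cryopreserved hepatocytes (viability >70%) at 0.5×10^6 cells/mL in Leibovitz buffer were preincubated at 37° C, then given 10 μM compound (0.1% DMSO) in duplicate. Samples at 0–60 min were quenched in acetonitrile and analysed by LC-MS/MS. Intrinsic clearance and half-life were derived from ln % remaining versus time.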

[5] = Hepatocyte stability assay, human; format: in vitro ADME; details: human, hepatocytes; for hepatocyte CLint at 10 μM: Hepatocyte stability Clint; for half-life at 10 μM: Hepatocyte stability T½
Procedure, shortened: as §1

[6] = THP-1, differentiated THP-1 cells, LPS then nigericin
[7] = +GSH, 30 minute compound-GSH pre-incubation, read-out: NRF2 activation +GSH EC50
[8] = +GSH, normalised to DMF high control
[9] = −GSH, U2OS PathHunter cells, 6 hours compound treatment, read-out: NRF2 activation −GSH EC50
[10] = −GSH, normalised to DMF high control
[11] = THP-1, differentiated THP-1 cells

IC50 ([2]; differentiated THP-1 cells) [µM] | IC50 ([1]; THP-1, Table 3, head to head comparison of exo vs endo double bond compounds) [µM] | EC50 ([3]; −GSH, Table 5 exo vs endo comparison, read-out: −GSH EC50) [µM] | SMILES | IC50 [1, 6] [µM] | EC50 [3, 7] [µM] | NRF2 activation +GSH Emax [3, 8] [%] | EC50 [3, 9] [µM] | NRF2 activation −GSH Emax [3, 10] [%] | IC50 [2, 11] [µM] | −GSH Emax ([3]; −GSH, normalised to DMF high control, Table 5 exo vs endo comparison) [%] | IL-1β lowering, result in words [1] | hepatocyte CLint at 10 μM [4] [µL/min/1e6 cells] | half-life at 10 μM [4] [h] | hepatocyte CLint at 10 μM [5] [µL/min/1e6 cells] | half-life at 10 μM [5] [h]
 |  |  | C=C(Cc1nc(Cc2ccc(CC(C)(C)C)cc2)no1)C(=O)O [Example 69, 2-((3-(4-neopentylbenzyl)-1,2,4-oxadiazol-5-yl)methyl)acrylic acid] | 48.6 |  |  |  |  | 10.1 |  |  |  |  |  | 
40.6 |  |  | C=C(Cc1cccc(C2(c3ccc(Cl)cc3)CC2)n1)C(=O)O [Example 175, 2-((6-(1-(4-chlorophenyl)cyclopropyl)pyridin-2-yl)methyl)acrylic acid] | 62.2 | > 100 | 4.0 | > 54.8 | 43 |  |  |  |  |  |  | 
21 | > 31.6 | 38.7 | C/C(=C\c1nc(C2(c3ccc(SC(F)(F)F)cc3)CC2)no1)C(=O)O [Example 170] | > 31.6 | 34.9 | 96.5 | 38.7 | 177 |  | 177 |  |  |  |  | 
> 100 |  |  | C=C(Cc1nc(C2(c3ccc(OC)c(Cl)c3)CC2)no1)C(=O)O [Example 140, 2-((3-(1-(3-chloro-4-methoxyphenyl)cyclopropyl)-1,2,4-oxadiazol-5-yl)methyl)acrylic acid] | 29.5 |  |  |  |  |  |  |  |  |  |  | 
 |  |  | C=C(Cc1nc(C2(c3ccc(OCCCC)cc3)CC2)no1)C(=O)O [Example 80, 2-((3-(1-(4-butoxyphenyl)cyclopropyl)-1,2,4-oxadiazol-5-yl)methyl)acrylic acid] | 37.2 |  |  |  |  | 9.6 |  |  |  |  |  | 
 |  |  | C=C(Cc1nc(C(C)(C)CCCCCC)no1)C(=O)O [Example 26, 2-((3-(2-methyloctan-2-yl)-1,2,4-oxadiazol-5-yl)methyl)acrylic acid] | 36.3 | 35.6 | 137 | 27.3 | 205 | 22.6 |  |  |  |  |  | 
 |  |  | C=C(Cc1nc(-c2ccc(CCCC)cc2)co1)C(=O)O [Example 101, 2-((4-(4-butylphenyl)oxazol-2-yl)methyl)acrylic acid] | 52.4 |  |  |  |  | 4.6 |  |  |  |  |  | 
 |  |  | C=C(Cc1nc(CCCCCC(C)C)no1)C(=O)O [Example 68, 2-((3-(6-methylheptyl)-1,2,4-oxadiazol-5-yl)methyl)acrylic acid] | 19.5 |  |  |  |  | 5.7 |  |  |  |  |  | 
 |  |  | C=C(Cc1nc(C2(c3ccc(OC(F)F)cc3)CC2)no1)C(=O)O [Example 78, 2-((3-(1-(4-(difluoromethoxy)phenyl)cyclopropyl)-1,2,4-oxadiazol-5-yl)methyl)acrylic acid] | 24.3 |  |  |  |  | > 100 |  |  |  |  |  | 
 |  |  | C=C(Cc1nc(-c2ccc(CCC(F)(F)F)cc2)no1)C(=O)O [Example 73, 2-((3-(4-(3,3,3-trifluoropropyl)phenyl)-1,2,4-oxadiazol-5-yl)methyl)acrylic acid] | > 100 |  |  |  |  | 10.4 |  | not effective |  |  |  | 
 |  |  | C=C(Cc1nc(C2(c3ccc(OC(F)(F)F)cc3)CC2)no1)C(=O)O [Example 49, 2-((3-(1-(4-(trifluoromethoxy)phenyl)cyclopropyl)-1,2,4-oxadiazol-5-yl)methyl)acrylic acid] | 12.4 | 57.5 | 56 | 49.2 | 109 |  |  |  | 15 | 1.43 | 8 | 2.87
 |  |  | C=C(Cc1nc(CCCCCCCC(F)(F)F)no1)C(=O)O [Example 11, 2-((3-(8,8,8-trifluorooctyl)-1,2,4-oxadiazol-5-yl)methyl)acrylic acid] | 8.2 | 13.1 | 149 | 11.4 | 185 |  |  |  | 56 | 0.3 | 30 | 0.7
 |  |  | C=C(Cc1nc(C(C)(C)CCCCC)no1)C(=O)O [Example 12, 2-((3-(2-methylheptan-2-yl)-1,2,4-oxadiazol-5-yl)methyl)acrylic acid] | > 100 | 61.9 | 73 | 53.1 | 85 |  |  | not effective | 15 | 1.5 | 16 | 1.5
 |  |  | C=C(Cc1nc(C2(c3ccc(Cl)cc3)CCC2)no1)C(=O)O [Example 25, 2-((3-(1-(4-chlorophenyl)cyclobutyl)-1,2,4-oxadiazol-5-yl)methyl)acrylic acid] | 64.1 | > 100 | 31 | > 100 | 32 |  |  |  | 17 | 1.5 | 12 | 1.73
 |  |  | C=C(Cc1nc(CCc2ccc(Cl)cc2)no1)C(=O)O [Example 5, 2-((3-(4-chlorophenethyl)-1,2,4-oxadiazol-5-yl)methyl)acrylic acid] | 45.3 | 50.4 | 63 | 42.4 | 74 |  |  |  | 48 | 0.667 | 8 | 2.9
 |  |  | C=C(Cc1nc(Cc2cc(Cl)cc(Cl)c2)no1)C(=O)O [Example 16, 2-((3-(3,5-dichlorobenzyl)-1,2,4-oxadiazol-5-yl)methyl)acrylic acid] | 45.6 | 23.6 | 149 | 19.4 | 180 |  |  |  | 29 | 0.75 | < 4 | > 6.03
 |  |  | C=C(Cc1nc(-c2ccc(Cl)cc2)no1)C(=O)O [Example 7, 2-((3-(4-chlorophenyl)-1,2,4-oxadiazol-5-yl)methyl)acrylic acid] | > 100 | 44.5 | 89 | 39.7 | 113 |  |  | not effective | 28 | 0.817 | < 6 | > 5.33
 |  |  | [2H]C([2H])([2H])C([2H])([2H])C([2H])([2H])C([2H])([2H])C([2H])([2H])C([2H])([2H])C([2H])([2H])C([2H])([2H])c1noc(CC(=C)C(=O)O)n1 [Example 34, 2-((3-(octyl-d17)-1,2,4-oxadiazol-5-yl)methyl)acrylic acid] | 9.5 | 4.7 | 167 | 3.7 | 222 |  |  |  | 374 | 0.0667 | 78 | 0.3
 |  |  | C=C(Cc1nc(-c2ccc(CCC3CC3)cc2)no1)C(=O)O [Example 76, 2-((3-(4-(2-cyclopropylethyl)phenyl)-1,2,4-oxadiazol-5-yl)methyl)acrylic acid] | 28.2 |  |  |  |  | 5.1 |  |  |  |  |  | 

SMILES | IC50 ([2]; differentiated THP-1 cells) [µM] | IC50 ([1]; THP-1, Table 3, head to head comparison of exo vs endo double bond compounds) [µM] | EC50 ([3]; −GSH, Table 5 exo vs endo comparison, read-out: −GSH EC50) [µM] | IC50 [1, 6] [µM] | EC50 [3, 7] [µM] | NRF2 activation +GSH Emax [3, 8] [%] | EC50 [3, 9] [µM] | NRF2 activation −GSH Emax [3, 10] [%] | IC50 [2, 11] [µM] | −GSH Emax ([3]; −GSH, normalised to DMF high control, Table 5 exo vs endo comparison) [%] | IL-1β lowering, result in words [1] | hepatocyte CLint at 10 μM [4] [µL/min/1e6 cells] | half-life at 10 μM [4] [h] | hepatocyte CLint at 10 μM [5] [µL/min/1e6 cells] | half-life at 10 μM [5] [h]
C=C(Cc1nc(-c2cc(F)c(OCCCC)c(F)c2)no1)C(=O)O [Example 162, 2-((3-(4-butoxy-3,5-difluorophenyl)-1,2,4-oxadiazol-5-yl)methyl)acrylic acid] | 6.4 |  |  | > 46.4 | 1.3 | 269 | 1.1 | 232 |  |  |  |  |  |  | 
